Test results taken from ChEMBL document CHEMBL5036330, “Discovery of 8,9-seco-ent-Kaurane Diterpenoids as Potential Leads for the Treatment of Triple-Negative Breast Cancer” (J Med Chem, 2021).
pIC50: −log10 of the molar value. Calls of active or inactive are those of the source. No cut-off for these calls is given here.

Tests used:
MDA-MB-231 [1] = test: Cytotoxicity against human MDA-MB-231 cells assessed as reduction in cell viability incubated for 96 hrs by MTT method; assay type: functional, cell-based; settings: MDA-MB-231, 96 h
MDA-MB-468 [2] = test: Cytotoxicity against human MDA-MB-468 cells assessed as reduction in cell viability incubated for 96 hrs by MTT method; assay type: functional, cell-based; settings: MDA-MB-468, 96 h
HEK293 = test: Cytotoxicity against HEK-293 cells assessed as reduction in cell viability incubated for 96 hrs by MTT method; assay type: cell-based; settings: Homo sapiens, HEK293, 96 h
MDA-MB-231 [3] = test: Antiproliferative activity against human MDA-MB-231 cells assessed as supression of long term proliferative capacity measured after 2 weeks by Colony formation assay; assay type: functional, cell-based; settings: dose 0.05-0.2 µM
MDA-MB-231 [4] = test: Induction of apoptosis in human MDA-MB-231 cells assessed as early apoptotic cells at 1 uM measured after 24 hrs by Annexin V/Propidium iodide stain based Flow cytometry (reference value: 3.34%); assay type: functional
MDA-MB-231 [5] = test: Induction of apoptosis in human MDA-MB-231 cells assessed as late apoptotic cells at 2 uM measured after 24 hrs by Annexin V/Propidium iodide stain based Flow cytometry (reference value: 2.78%); assay type: functional
MDA-MB-231 [6] = test: Induction of apoptosis in human MDA-MB-231 cells assessed as early apoptotic cells at 5 uM measured after 24 hrs by Annexin V/Propidium iodide stain based Flow cytometry (reference value: 3.34%); assay type: functional
MDA-MB-468 [7] = test: Induction of apoptosis in human MDA-MB-468 cells assessed as late apoptotic cells at 2 uM measured after 24 hrs by Annexin V/Propidium iodide stain based Flow cytometry (reference value: 3.98%); assay type: functional
MDA-MB-468 [8] = test: Anticancer activity in human MDA-MB-468 cells xenografted mouse model assessed as tumor growth inhibition at 10 mg/kg, ip treated for 33 days relative to control; assay type: functional, organism-based; settings: time 33.0 day
MDA-MB-231 [9] = test: Induction of cell cycle arrest in human MDA-MB-231 cells assessed as accumulation of cells at G1 phase at 2 uM measured after 24 hrs by flow cytometry (reference value: 47.7%); assay type: functional
MDA-MB-231 [10] = test: Induction of cell cycle arrest in human MDA-MB-231 cells assessed as accumulation of cells at G1 phase at 5 uM measured after 24 hrs by flow cytometry (reference value: 47.7%); assay type: functional
MDA-MB-468 [11] = test: Induction of cell cycle arrest in human MDA-MB-468 cells assessed as accumulation of cells at G2 phase at 1 uM measured after 24 hrs by flow cytometry (reference value: 26.5%); assay type: functional
MDA-MB-468 [12] = test: Induction of cell cycle arrest in human MDA-MB-468 cells assessed as accumulation of cells at S phase at 1 uM measured after 24 hrs by flow cytometry (reference value: 46.9%); assay type: functional
MDA-MB-468 [13] = test: Induction of cell cycle arrest in human MDA-MB-468 cells assessed as accumulation of cells at G1 phase at 2 uM measured after 24 hrs by flow cytometry (reference value: 26.6%); assay type: functional
MDA-MB-468 [14] = test: Induction of cell cycle arrest in human MDA-MB-468 cells assessed as accumulation of cells at G2 phase at 5 uM measured after 24 hrs by flow cytometry (reference value: 26.5%); assay type: functional
MDA-MB-231 [15] = test: Induction of mitochondrial depolarization in human MDA-MB-231 cells assessed as aggregates at 1 uM in dark by JC10 staining based fluorescence microscopy (reference value: 94.4%); assay type: functional
MDA-MB-231 [16] = test: Induction of mitochondrial depolarization in human MDA-MB-231 cells assessed as monomers at 1 uM in dark by JC10 staining based fluorescence microscopy (reference value: 5.6%); assay type: functional
MDA-MB-231 [17] = test: Induction of mitochondrial depolarization in human MDA-MB-231 cells assessed as monomers at 5 uM in dark by JC10 staining based fluorescence microscopy (reference value: 5.6%); assay type: functional
MDA-MB-468 [18] = test: Induction of mitochondrial depolarization in human MDA-MB-468 cells assessed as aggregates at 2 uM in dark by JC10 staining based fluorescence microscopy (reference value: 91.6%); assay type: functional
MDA-MB-231 [19] = test: Induction of apoptosis in human MDA-MB-231 cells assessed as increase in cleaved caspase 3 at 1 to 5 uM measured after 24 hrs by Western blot analysis; assay type: functional, cell-based; settings: dose 1-5 µM
MDA-MB-468 [20] = test: Induction of apoptosis in human MDA-MB-468 cells assessed as increase in cleaved caspase 3 at 1 to 5 uM measured after 24 hrs by Western blot analysis; assay type: functional, cell-based; settings: dose 1-5 µM
MDA-MB-468 [21] = test: Induction of autophagy in human MDA-MB-468 cells assessed as increase in ATG7 expression at 1 to 5 uM incubated for 24 hrs by Western blot analysis; assay type: functional, cell-based; settings: dose 1-5 µM
MDA-MB-468 [22] = test: Induction of autophagy in human MDA-MB-468 cells assessed as elimination of p62 at 1 to 5 uM incubated for 24 hrs by Western blot analysis; assay type: functional, cell-based; settings: dose 1-5 µM
MDA-MB-231 [23] = test: Induction of autophagy in human MDA-MB-231 cells assessed as cleaved PARP at 1 to 5 uM incubated for 24 hrs in presence of chloroquine by Western blot analysis relative to control; assay type: functional, cell-based; settings: dose 1-5 µM
MDA-MB-231 [24] = test: Antiinvasive activity against in human MDA-MB-231 cells measured at 0.2 uM upto 72 hrs by transwell invasion assay relative to control; assay type: functional; settings: MDA-MB-231, 72 h, time hrs <=72
MDA-MB-231 [25] = test: Antiinvasive activity against in human MDA-MB-231 cells assessed as reduction in beta-catenin expression measured upto 72 hrs by Western blot analysis; assay type: functional, cell-based; settings: dose 0.1-0.2 µM, time hrs <=72
MDA-MB-231 [26] = test: Antiinvasive activity against in human MDA-MB-231 cells assessed as reduction in MMP9 expression measured upto 72 hrs by Western blot analysis; assay type: functional, cell-based; settings: dose 0.1-0.2 µM, time hrs <=72
MDA-MB-231 [27] = test: Inhibition of Akt phosphorylation in human MDA-MB-231 cells measured after 24 hrs by Western blot analysis; assay type: cell-based
MDA-MB-468 [28] = test: Inhibition of Akt phosphorylation in human MDA-MB-468 cells measured after 24 hrs by Western blot analysis; assay type: cell-based; settings: dose 1-5 µM
MDA-MB-231 [29] = test: Effect on PI3K expression in human MDA-MB-231 cells measured at 1 to 5 uM after 24 hrs by Western blot analysis; assay type: functional, cell-based; settings: dose 1-5 µM
MDA-MB-468 [30] = test: Effect on PI3K expression in human MDA-MB-468 cells measured at 1 to 5 uM after 24 hrs by Western blot analysis; assay type: functional, cell-based; settings: dose 1-5 µM
Homo sapiens = organism: Homo sapiens; test: Inhibition of PI3K (unknown origin) by ADP-Glo assay
MDA-MB-231 [31] = test: Cytotoxicity against Akt1-silenced human MBA-MB-231 cells assessed as cell viability measured after 24 hrs; assay type: functional, cell-based
[32] = Toxicity in NOD/SCID mouse assessed as change in body weight at 5 to 10 mg/kg, ip treated for 33 days; assay type: organism-based; settings: in vivo, 792 h, dose 5-10 mg/kg, time 33 day
[33] = Toxicity in NOD/SCID mouse assessed as cytotoxicity in liver at 10 mg/kg, ip treated for 33 days by H&E staining analysis; assay type: organism-based; settings: in vivo, 792 h, time 33 day
[34] = Selectivity index, ratio of IC50 for human MCF-10A cells to IC50 for human MBA-MB-231 cells; assay type: functional
[35] = Selectivity index, ratio of IC50 for HEK293 cells to IC50 for human MBA-MB-231 cells; assay type: toxicity; settings: HEK293 cells versus MBA-MB-231 cells, read-out: Selectivity Index

C=C1C(=O)C2=C[C@H]1CCC(=O)[C@]1(C)[C@H](O)CCC(C)(C)[C@H]1C[C@H]2O
pIC50 (MDA-MB-231 [1]): 7.11 | pIC50 (MDA-MB-468 [2]): 7.15 | pIC50 (HEK293): 5.71 | Activity (MDA-MB-231 [3]): Active | Activity (MDA-MB-231 [4]): 6.59% | Activity (MDA-MB-231 [5]): 13.6% | Activity (MDA-MB-231 [6]): 18% | Activity (MDA-MB-468 [7]): 12.5% | Activity (MDA-MB-468 [8]): Active | Activity (MDA-MB-231 [9]): 33.8% | Activity (MDA-MB-231 [10]): 27.5% | Activity (MDA-MB-468 [11]): 57.9% | Activity (MDA-MB-468 [12]): 27.9% | Activity (MDA-MB-468 [13]): 14.3% | Activity (MDA-MB-468 [14]): 59.6% | Activity (MDA-MB-231 [15]): 81.1% | Activity (MDA-MB-231 [16]): 18.9% | Activity (MDA-MB-231 [17]): 76.2% | Activity (MDA-MB-468 [18]): 21.5% | Activity (MDA-MB-231 [19]): Active | Activity (MDA-MB-468 [20]): Active | Activity (MDA-MB-468 [21]): Active | Activity (MDA-MB-468 [22]): Active | Activity (MDA-MB-231 [23]): inactive | inhibition at 0.2 µM (MDA-MB-231 [24]): 80% | Activity (MDA-MB-231 [25]): Active | Activity (MDA-MB-231 [26]): Active | inhibition (MDA-MB-231 [27]): Active | inhibition (MDA-MB-468 [28]): Active | Activity (MDA-MB-231 [29]): inactive | Activity (MDA-MB-468 [30]): inactive | inhibition (Homo sapiens): inactive | Activity (MDA-MB-231 [31]): inactive | Activity [32]: Non-Toxic | Activity [33]: Non-Toxic | Selectivity Index [34]: 14 | selectivity ratio [35]: 26.2
